This note sets out measurements from patent US11401278B2, “Macrocyclic indole derivatives” (The Broad Institute, Inc., priority 2017, dated 2022).

SMILES strings stand for the structures. Where a name gives a salt, the structure may show the parent alone.

For series [1], the system named is SUDHL5. In words: Antiproliferation assay (Assay 7), SUDHL5. Format: cell-based. As to conditions: CellTiter-Glo, median, read-out: Antiproli SUDHL5 [M] (median) IC50. The method, boiled down:
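Cells were exposed to compound for 72 hours at 37° C. Viability was measured by CellTiter-Glo luminescence. A day 0 plate read at the start served as the time-zero reference.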

Series [2] deals with SUDHL5. In words: Induction of cytotoxicity (Assay 6), SUDHL5. The note with it: read-out: Cytotox SUDHL5 [M] (median) IC50, CellTiter-Glo, 5 hours, SUDHL5.

As to `CCc1c2c(nn1C)CN(CC)S(=O)(=O)CCCn1c(C(=O)O)c(CCCOc3cccc4cc(F)ccc34)c3ccc(Cl)c-2c31` (racemic) [Example 56, (rac)-4-chloro-3,14-diethyl-7-{3-[(6-fluoro-1-naphthyl)oxy]propyl}-2-methyl-11,12,14,15-tetrahydro-2H,10H-pyrazolo[3′,4′:4,5][1,2,8]thiadiazacycloundecino[6,7,8-hi]indole-8-carboxylic acid 13,13-dioxide], the IC50 in the series on SUDHL5 [1] (Homo sapiens, SU-DHL-5, 72 h) came out at 9.6e-08 M; in the series with SUDHL5 [2] (Homo sapiens, SU-DHL-5, 5 h), 2.8e-07 M.
Turning to `CCc1c2c(nn1C)CN(C1CC1)S(=O)(=O)CCCn1c(C(=O)O)c(CCCOc3cccc4cc(F)ccc34)c3ccc(Cl)c-2c31` (single isomer, unassigned; enantiomer 1) [Example 54, (−)-4-chloro-14-cyclopropyl-3-ethyl-7-{3-[(6-fluoronaphthalen-1-yl)oxy]propyl}-2-methyl-13,13-dioxo-10,11,12,13,14,15-hexahydro-2H-13lambda^6-pyrazolo[3′,4′:4,5][1,2,8]thiadiazacycloundecino[6,7,8-hi]indole-8-carboxylic acid N-ethylethanamine Salt (Enantiomer 1)], the IC50 was found to be 4.1e-07 M in the series with SUDHL5 [1] (72 hours) and 3.6e-07 M in the series with SUDHL5 [2].
The corresponding values for `Cc1c2c(nn1C)CN(C)S(=O)(=O)CCCn1c(C(=O)O)c(CCCOc3cccc4ccccc34)c3ccc(Cl)c-2c31` (single isomer, unassigned; enantiomer 2) [Example 6, 4-Chloro-2,3,14-trimethyl-7-{3-[(naphthalen-1-yl)oxy]propyl}-13,13-dioxo-10,11,12,13,14,15-hexahydro-2H-13λ^6-pyrazolo[3′,4′:4,5][1,2,8]thiadiazacycloundecino[6,7,8-hi]indole-8-carboxylic acid-N-ethylethanamine salt (Enantiomer 2)] are 1.1e-05 M and 1.2e-05 M.
The corresponding values for `CCc1c2c(nn1C)CN(C1CC1)S(=O)(=O)CCCn1c(C(=O)O)c(CCCOc3cccc4cc(F)ccc34)c3ccc(Cl)c-2c31` (racemic) [Example 53, (rac)-4-chloro-14-cyclopropyl-3-ethyl-7-{3-[(6-fluoro-1-naphthyl)oxy]propyl}-2-methyl-11,12,14,15-tetrahydro-2H,10H-pyrazolo[3′,4′:4,5][1,2,8]thiadiazacycloundecino[6,7,8-hi]indole-8-carboxylic acid 13,13-dioxide] are 5.9e-07 M and 8.1e-07 M.
In the same order, the values of `CCNCC.CCc1c2c(nn1C)C(CCN1CCOCC1)N(C)S(=O)(=O)CCCn1c(C(=O)O)c(CCCOc3cccc4cc(F)ccc34)c3ccc(Cl)c-2c31` (single isomer, unassigned; enantiomer 2) [Example 76, 4-chloro-3-ethyl-7-{3-[(6-fluoronaphthalen-1-yl)oxy]propyl}-2,14-dimethyl-15-[2-(morpholin-4-yl)ethyl]-13,13-dioxo-10,11,12,13,14,15-hexahydro-2H-13lambda^6-pyrazolo[3′,4′:4,5][1,2,8]thiadiazacycloundecino[6,7,8-hi]indole-8-carboxylic acid-N-ethylethanamine Salt (Enantiomer 2)] are 5.7e-09 M and 6.7e-09 M.
Consider `Cc1c2c(nn1C)C(CCN1CCOCC1)N(C)S(=O)(=O)CCCn1c(C(=O)O)c(CCCOc3cccc4cc(F)ccc34)c3ccc(Cl)c-2c31` (single isomer, unassigned; enantiomer 2) [Example 67, 4-chloro-7-{3-[(6-fluoronaphthalen-1-yl)oxy]propyl}-2,3,14-trimethyl-15-[2-(morpholin-4-yl)ethyl]-13,13-dioxo-10,11,12,13,14,15-hexahydro-2H-13lambda^6-pyrazolo[3′,4′:4,5][1,2,8]thiadiazacycloundecino[6,7,8-hi]indole-8-carboxylic acid (Enantiomer 2)], for which the IC50 is 6.7e-09 M in the series with SUDHL5 [1] (72 hours) and 9.8e-09 M with SUDHL5 [2].
